Measurements published in PubChem BioAssay (NCI).
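Values below derive from 48-hour exposures of cells grown in 96-well plates, with endpoints linearly interpolated between the two concentrations bracketing the appropriate inhibition level. TGI denotes the concentration required for complete inhibition of growth.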

Experiments:
Assay in all cases: DTP human tumour cell line panel, 48 h
[1] = test system: SK-OV-3 ovarian
[2] = test system: A498 renal
[3] = test system: HT29 colon
[4] = test system: RPMI-8226 leukemia
[5] = test system: SNB-19 CNS
[6] = test system: SN12C renal
[7] = test system: SK-MEL-2 melanoma
[8] = test system: 786-0 renal
[9] = test system: SF-539 CNS
[10] = test system: SW-620 colon
[11] = test system: DMS 114 small cell lung
[12] = test system: K-562 leukemia
[13] = test system: KM20L2 colon
[14] = test system: NCI-H23 lung
[15] = test system: SK-MEL-28 melanoma
[16] = test system: MALME-3M melanoma
[17] = test system: TK-10 renal
[18] = test system: M19-MEL melanoma
[19] = test system: MOLT-4 leukemia
[20] = test system: ACHN renal
[21] = test system: SNB-78 CNS
[22] = test system: U251 CNS
[23] = test system: OVCAR-3 ovarian
[24] = test system: A549 NSCLC
[25] = test system: RXF 393 renal
[26] = test system: SF-295 CNS
[27] = test system: NCI-H522 lung
[28] = test system: HCT-116 colon
[29] = test system: HCC-2998 colon
[30] = test system: SK-MEL-5 melanoma
[31] = test system: SF-268 CNS
[32] = test system: UACC-62 melanoma
[33] = test system: KM12 colon
[34] = test system: CCRF-CEM leukemia
[35] = test system: NCI-H460 lung
[36] = test system: SR leukemia
[37] = test system: LXFL 529 NSCLC
[38] = test system: UACC-257 melanoma
[39] = test system: HOP-18 NSCLC
[40] = test system: COLO 205 colon
[41] = test system: CAKI-1 renal
[42] = test system: NCI-H226 lung
[43] = test system: DLD-1 colon
[44] = test system: UO-31 renal
[45] = test system: IGROV1 ovarian
[46] = test system: EKVX NSCLC
[47] = test system: OVCAR-8 ovarian
[48] = test system: SNB-75 CNS
[49] = test system: DMS 273 small cell lung
[50] = test system: HL-60(TB) leukemia
[51] = test system: LOX IMVI melanoma
[52] = test system: OVCAR-5 ovarian
[53] = test system: HOP-92 NSCLC
[54] = test system: HCT-15 colon
[55] = test system: XF 498 CNS
[56] = test system: OVCAR-4 ovarian
[57] = test system: HOP-62 NSCLC
[58] = test system: M14 melanoma

Question: With `C1CN2CCO[SiH](O1)OCC2` as the molecule, how does the TGI [1] read?
Answer: > 100 µM

Question: And the TGI [2]?
Answer: > 100 µM

Question: And the TGI [3]?
Answer: > 100 µM

Question: What about the TGI [4] of the same molecule?
Answer: > 100 µM

Question: What about the TGI [5] of the same molecule?
Answer: > 100 µM

Question: What about the TGI [6] of the same molecule?
Answer: > 100 µM

Question: And the TGI [7]?
Answer: > 100 µM

Question: What about the TGI [8] of the same molecule?
Answer: > 100 µM

Question: And the TGI [9]?
Answer: > 100 µM

Question: What about the TGI [10] of the same molecule?
Answer: > 100 µM

Question: What about the TGI [11] of the same molecule?
Answer: > 100 µM

Question: What about the TGI [12] of the same molecule?
Answer: > 100 µM

Question: What about the TGI [13] of the same molecule?
Answer: > 100 µM

Question: What about the TGI [14] of the same molecule?
Answer: > 100 µM

Question: What about the TGI [15] of the same molecule?
Answer: > 100 µM

Question: What about the TGI [16] of the same molecule?
Answer: > 100 µM

Question: What about the TGI [17] of the same molecule?
Answer: > 100 µM

Question: And the TGI [18]?
Answer: > 100 µM

Question: And the TGI [19]?
Answer: > 100 µM

Question: And the TGI [20]?
Answer: > 100 µM

Question: And the TGI [21]?
Answer: > 100 µM

Question: And the TGI [22]?
Answer: > 100 µM

Question: What about the TGI [23] of the same molecule?
Answer: > 100 µM

Question: And the TGI [24]?
Answer: > 100 µM

Question: And the TGI [25]?
Answer: > 100 µM

Question: And the TGI [26]?
Answer: > 100 µM

Question: What about the TGI [27] of the same molecule?
Answer: > 100 µM

Question: What about the TGI [28] of the same molecule?
Answer: > 100 µM

Question: What about the TGI [29] of the same molecule?
Answer: > 100 µM

Question: What about the TGI [30] of the same molecule?
Answer: > 100 µM

Question: And the TGI [31]?
Answer: > 100 µM

Question: What about the TGI [32] of the same molecule?
Answer: > 100 µM

Question: What about the TGI [33] of the same molecule?
Answer: > 100 µM

Question: And the TGI [34]?
Answer: > 100 µM

Question: And the TGI [35]?
Answer: > 100 µM

Question: What about the TGI [36] of the same molecule?
Answer: > 100 µM

Question: And the TGI [37]?
Answer: > 100 µM

Question: What about the TGI [38] of the same molecule?
Answer: > 100 µM

Question: What about the TGI [39] of the same molecule?
Answer: > 100 µM

Question: And the TGI [40]?
Answer: > 100 µM

Question: What about the TGI [41] of the same molecule?
Answer: > 100 µM

Question: And the TGI [42]?
Answer: > 100 µM

Question: And the TGI [43]?
Answer: > 100 µM

Question: What about the TGI [44] of the same molecule?
Answer: > 100 µM

Question: What about the TGI [45] of the same molecule?
Answer: > 100 µM

Question: And the TGI [46]?
Answer: > 100 µM

Question: And the TGI [47]?
Answer: > 100 µM

Question: What about the TGI [48] of the same molecule?
Answer: > 100 µM

Question: And the TGI [49]?
Answer: > 100 µM

Question: What about the TGI [50] of the same molecule?
Answer: > 100 µM

Question: For `N#CC(C(=O)Nc1ccccc1)C1=C(Cl)C(=O)c2ccccc2C1=O` (configuration not stated), which TGI [1] is on record?
Answer: > 100 µM

Question: And the TGI [2]?
Answer: > 100 µM

Question: What about the TGI [3] of the same molecule?
Answer: 67.5 µM

Question: What about the TGI [5] of the same molecule?
Answer: 36.3 µM

Question: And the TGI [51]?
Answer: 29.8 µM

Question: And the TGI [6]?
Answer: 29.1 µM

Question: What about the TGI [7] of the same molecule?
Answer: 32.7 µM

Question: What about the TGI [8] of the same molecule?
Answer: 27.7 µM

Question: And the TGI [9]?
Answer: 28.8 µM

Question: And the TGI [10]?
Answer: 50 µM

Question: What about the TGI [52] of the same molecule?
Answer: 32.2 µM

Question: What about the TGI [53] of the same molecule?
Answer: 27.9 µM

Question: What about the TGI [11] of the same molecule?
Answer: 41.7 µM

Question: What about the TGI [12] of the same molecule?
Answer: 52.5 µM

Question: And the TGI [54]?
Answer: 32.6 µM

Question: And the TGI [13]?
Answer: 48.9 µM

Question: And the TGI [14]?
Answer: 36.5 µM

Question: What about the TGI [15] of the same molecule?
Answer: 32.1 µM

Question: What about the TGI [16] of the same molecule?
Answer: 26.7 µM

Question: And the TGI [17]?
Answer: 36.7 µM

Question: What about the TGI [18] of the same molecule?
Answer: 21.8 µM

Question: What about the TGI [21] of the same molecule?
Answer: 45.9 µM

Question: What about the TGI [22] of the same molecule?
Answer: 61.5 µM

Question: And the TGI [23]?
Answer: 34.5 µM

Question: What about the TGI [24] of the same molecule?
Answer: 43.4 µM

Question: What about the TGI [55] of the same molecule?
Answer: 30.3 µM

Question: And the TGI [25]?
Answer: 31.4 µM

Question: And the TGI [26]?
Answer: 36.5 µM

Question: And the TGI [27]?
Answer: 29.3 µM

Question: And the TGI [56]?
Answer: 31 µM

Question: And the TGI [28]?
Answer: 27.3 µM

Question: And the TGI [29]?
Answer: 45.9 µM

Question: What about the TGI [30] of the same molecule?
Answer: 30.2 µM

Question: And the TGI [31]?
Answer: 31 µM

Question: And the TGI [57]?
Answer: 33.6 µM

Question: What about the TGI [32] of the same molecule?
Answer: 33.3 µM

Question: What about the TGI [33] of the same molecule?
Answer: 50.7 µM

Question: And the TGI [34]?
Answer: > 100 µM

Question: What about the TGI [35] of the same molecule?
Answer: > 100 µM

Question: What about the TGI [37] of the same molecule?
Answer: 35.5 µM

Question: What about the TGI [38] of the same molecule?
Answer: 12.8 µM

Question: And the TGI [39]?
Answer: 22.7 µM

Question: And the TGI [40]?
Answer: 37.3 µM

Question: What about the TGI [41] of the same molecule?
Answer: 41.2 µM

Question: And the TGI [42]?
Answer: 30.8 µM

Question: What about the TGI [43] of the same molecule?
Answer: 40.2 µM

Question: What about the TGI [44] of the same molecule?
Answer: 26.9 µM

Question: What about the TGI [45] of the same molecule?
Answer: 34.8 µM

Question: And the TGI [46]?
Answer: 35.1 µM

Question: And the TGI [47]?
Answer: 46.1 µM

Question: What about the TGI [58] of the same molecule?
Answer: 30.3 µM

Question: And the TGI [50]?
Answer: 20.5 µM
